Experimental data from patent US20090247559A1 (Exelixis, Inc., priority 2007, published 2009).
Like-named read-outs stand apart in the source and are kept apart here.

Experiments:
CDC7 = CDC7 (Homo sapiens, UniProt O00311); test: CDC7 inhibition, biochemical chemiluminescence assay (Kinase Glo, IC50 determination)
In short: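 CDC7 enzyme preincubated with compound 10 min at ambient temperature, then ATP mix in Tris Base added; reaction 90 min at 24-27 °C. Remaining ATP quantified by Kinase Glo luminescence to give IC50.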

[1] = target: PIM (PIM-1, PIM-2, and/or PIM-3); test: PIM-1, PIM-2 and PIM-3 inhibition, biochemical chemiluminescence assays (Kinase Glo, IC50 determination); details: Table 1 activity class; PIM refers to PIM-1, PIM-2, and/or PIM-3; read-out: PIM IC50 (Activity B)
CK2 = CK2 (Homo sapiens, UniProt P68400); test: CK2 inhibition, biochemical chemiluminescence holoenzyme assay (Kinase Glo, IC50 determination); details: Table 1 activity class; symbol given only if active; read-out: CK2 IC50 (Activity C)
In short: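 Holoenzyme CK2 assay; compounds pre-incubated with substrate and enzyme, then reacted 150 min at 24-27° C. Remaining ATP measured as luminescence with Kinase Glo, and IC50 derived from the signal.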

[2] = Table 1 activity class, symbol given only if active, read-out: CDC7 IC50 (Activity A)
[3] = compounds in Table 1, read-out: CDC7 IC50 value

CK2, sequence (P68400 whole entry): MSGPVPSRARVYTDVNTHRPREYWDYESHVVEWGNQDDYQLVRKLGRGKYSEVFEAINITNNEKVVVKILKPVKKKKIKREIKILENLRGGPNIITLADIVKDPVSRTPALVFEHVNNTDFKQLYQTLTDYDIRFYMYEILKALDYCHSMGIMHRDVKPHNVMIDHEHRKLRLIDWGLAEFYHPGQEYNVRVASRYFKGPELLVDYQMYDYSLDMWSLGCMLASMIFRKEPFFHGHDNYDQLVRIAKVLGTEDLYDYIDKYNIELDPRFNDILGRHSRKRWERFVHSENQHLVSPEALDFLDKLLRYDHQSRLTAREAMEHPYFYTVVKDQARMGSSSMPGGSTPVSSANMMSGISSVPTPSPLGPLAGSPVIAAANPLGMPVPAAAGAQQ
CK2, sequence (P67870 whole entry partner): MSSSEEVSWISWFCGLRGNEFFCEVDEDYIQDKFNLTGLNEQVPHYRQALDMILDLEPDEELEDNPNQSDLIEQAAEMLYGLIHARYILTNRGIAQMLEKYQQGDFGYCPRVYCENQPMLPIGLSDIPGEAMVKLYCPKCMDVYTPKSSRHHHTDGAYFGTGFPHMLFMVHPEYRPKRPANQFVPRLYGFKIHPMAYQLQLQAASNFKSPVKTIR
CDC7, sequence (O00311 whole entry): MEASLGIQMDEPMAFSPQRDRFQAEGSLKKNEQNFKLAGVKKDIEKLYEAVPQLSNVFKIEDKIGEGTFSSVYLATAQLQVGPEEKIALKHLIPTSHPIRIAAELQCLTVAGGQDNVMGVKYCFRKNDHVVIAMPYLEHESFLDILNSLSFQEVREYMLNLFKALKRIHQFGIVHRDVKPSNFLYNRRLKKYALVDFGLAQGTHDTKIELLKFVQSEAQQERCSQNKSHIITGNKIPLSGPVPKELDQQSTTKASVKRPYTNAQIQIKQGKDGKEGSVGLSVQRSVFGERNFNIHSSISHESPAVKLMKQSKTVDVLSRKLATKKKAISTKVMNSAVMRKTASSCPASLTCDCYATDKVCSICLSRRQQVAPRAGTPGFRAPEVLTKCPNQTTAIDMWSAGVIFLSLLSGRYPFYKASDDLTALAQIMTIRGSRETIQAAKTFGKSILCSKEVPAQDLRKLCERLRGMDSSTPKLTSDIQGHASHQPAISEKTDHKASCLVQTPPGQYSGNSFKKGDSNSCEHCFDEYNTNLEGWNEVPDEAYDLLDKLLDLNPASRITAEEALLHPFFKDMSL
CDC7, sequence (Q9UBU7 whole entry partner): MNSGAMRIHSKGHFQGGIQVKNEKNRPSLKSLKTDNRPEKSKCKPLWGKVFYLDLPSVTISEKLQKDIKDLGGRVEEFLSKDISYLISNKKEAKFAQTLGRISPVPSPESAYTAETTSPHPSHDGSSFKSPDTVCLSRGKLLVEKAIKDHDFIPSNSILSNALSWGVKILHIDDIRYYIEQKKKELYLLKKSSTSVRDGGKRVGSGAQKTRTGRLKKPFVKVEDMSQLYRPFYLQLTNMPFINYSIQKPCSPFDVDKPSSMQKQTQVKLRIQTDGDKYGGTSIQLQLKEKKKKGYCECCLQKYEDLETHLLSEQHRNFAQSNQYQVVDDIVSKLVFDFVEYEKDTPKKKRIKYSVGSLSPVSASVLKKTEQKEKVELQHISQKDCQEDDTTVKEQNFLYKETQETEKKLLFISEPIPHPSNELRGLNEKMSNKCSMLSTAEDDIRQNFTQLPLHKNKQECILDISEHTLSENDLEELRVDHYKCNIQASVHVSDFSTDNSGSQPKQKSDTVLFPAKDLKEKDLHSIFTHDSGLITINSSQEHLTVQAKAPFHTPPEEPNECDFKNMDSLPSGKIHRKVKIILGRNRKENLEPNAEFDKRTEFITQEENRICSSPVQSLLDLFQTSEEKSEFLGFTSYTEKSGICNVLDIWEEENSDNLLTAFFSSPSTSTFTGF

Compound	IC50 (CDC7; [2])	IC50 (CDC7; [3])	IC50 [1]	IC50 (CK2)
O=c1[nH]c(CN2CCCC(F)C2)nc2c1oc1ccc(Br)cc12 (centres unmarked) [Compound 317, 8-bromo-2-[(3-fluoropiperidin-1-yl)methyl][1]benzofuro[3,2-d]pyrimidin-4(3H)-one]	< 10 µM	< 0.1 µM	< 10 µM	< 10 µM
COCC(=O)Nc1ccc(-c2nc3c(oc4ccc(Br)cc43)c(=O)[nH]2)c(Cl)c1 [Compound 319, N-[4-(8-bromo-4-oxo-3,4-dihydro[1]benzofuro[3,2-d]pyrimidin-2-yl)-3-chlorophenyl]-2-(methyloxy)acetamide]	< 10 µM	–	< 10 µM	< 10 µM
COC(=O)Nc1ccc(-c2nc3c(oc4ccc(Br)cc43)c(=O)[nH]2)c(Cl)c1 [Compound 320, methyl [4-(8-bromo-4-oxo-3,4-dihydro[1]benzofuro[3,2-d]pyrimidin-2-yl)-3-chlorophenyl]carbamate]	< 10 µM	–	< 10 µM	< 10 µM
O=C(Nc1ccc(-c2nc3c(oc4ccc(Br)cc43)c(=O)[nH]2)c(Cl)c1)c1ccco1 [Compound 321, N-[4-(8-bromo-4-oxo-3,4-dihydro[1]benzofuro[3,2-d]pyrimidin-2-yl)-3-chlorophenyl]furan-2-carboxamide]	< 10 µM	–	< 10 µM	< 10 µM
O=C(Cc1cccnc1)Nc1ccc(-c2nc3c(oc4ccc(Br)cc43)c(=O)[nH]2)c(Cl)c1 [Compound 322, N-[4-(8-bromo-4-oxo-3,4-dihydro[1]benzofuro[3,2-d]pyrimidin-2-yl)-3-chlorophenyl]-2-pyridin-3-ylacetamide]	< 10 µM	–	< 10 µM	< 10 µM
O=C(Nc1ccc(-c2nc3c(oc4ccc(Br)cc43)c(=O)[nH]2)c(Cl)c1)c1cnccn1 [Compound 323, N-[4-(8-bromo-4-oxo-3,4-dihydro[1]benzofuro[3,2-d]pyrimidin-2-yl)-3-chlorophenyl]pyrazine-2-carboxamide]	< 10 µM	–	< 10 µM	< 10 µM
O=C(Nc1ccc(-c2nc3c(oc4ccc(Br)cc43)c(=O)[nH]2)c(Cl)c1)c1ccno1 [Compound 324, N-[4-(8-bromo-4-oxo-3,4-dihydro[1]benzofuro[3,2-d]pyrimidin-2-yl)-3-chlorophenyl]isoxazole-5-carboxamide]	< 10 µM	–	< 10 µM	< 10 µM
O=C(Nc1ccc(-c2nc3c(oc4ccc(Br)cc43)c(=O)[nH]2)c(Cl)c1)c1cncnc1 [Compound 328, N-[4-(8-bromo-4-oxo-3,4-dihydro[1]benzofuro[3,2-d]pyrimidin-2-yl)-3-chlorophenyl]pyrimidine-5-carboxamide]	< 10 µM	–	< 10 µM	< 10 µM
O=c1[nH]c(CN2CC=CC2)nc2c1oc1ccc(Br)cc12 [Compound 331, 8-bromo-2-(3-pyrrolin-1-ylmethyl)[1]benzofuro[3,2-d]pyrimidin-4(3H)-one]	< 10 µM	< 0.1 µM	< 10 µM	< 10 µM
O=c1[nH]c(CN2C[C@H](O)[C@@H](O)C2)nc2c1oc1ccc(Br)cc12 [Compound 333, 8-bromo-2-(((3 S,4S)-3,4-dihydroxypyrrolidin-1-yl)methyl)benzofuro[3,2-d]pyrimidin-4(3H)-one]	< 10 µM	< 0.1 µM	< 10 µM	< 10 µM
COc1ccc(C(=O)Nc2ccc(-c3nc4c(oc5ccc(Br)cc54)c(=O)[nH]3)c(Cl)c2)cn1 [Compound 343, N-[4-(8-bromo-4-oxo-3,4-dihydro[1]benzofuro[3,2-d]pyrimidin-2-yl)-3-chlorophenyl]-6-(methyloxy)pyridine-3-carboxamide]	< 10 µM	–	< 10 µM	< 10 µM
O=c1[nH]c(CN2CCC[C@@H]2CO)nc2c1oc1ccc(Br)cc12 [Compound 344, 8-bromo-2-{[(2R)-2-(hydroxymethyl)pyrrolidin-1-yl]methyl}[1]benzofuro[3,2-d]pyrimidin-4(3H)-one]	< 10 µM	< 0.1 µM	< 10 µM	< 10 µM
CC1(O)CCN(Cc2nc3c(oc4ccc(Br)cc43)c(=O)[nH]2)C1 (centres unmarked) [Compound 346, 8-bromo-2-[(3-hydroxy-3-methylpyrrolidin-1-yl)methyl][1]benzofuro[3,2-d]pyrimidin-4(3H)-one]	< 10 µM	< 0.1 µM	< 10 µM	< 10 µM
O=C(O)c1ccc(C(=O)Nc2ccc(-c3nc4c(oc5ccc(Br)cc54)c(=O)[nH]3)c(Cl)c2)nc1 [Compound 347, 6-({[4-(8-bromo-4-oxo-3,4-dihydro[1]benzofuro[3,2-d]pyrimidin-2-yl)-3-chlorophenyl]amino}carbonyl)pyridine-3-carboxylic acid]	< 10 µM	–	< 10 µM	< 10 µM
O=c1[nH]c(CN2C[C@@H](O)[C@@H](O)C2)nc2c1oc1ccc(Br)cc12 [Compound 348, 8-bromo-2-{[cis-3,4-dihydroxypyrrolidin-1-yl]methyl}[1]benzofuro[3,2-d]pyrimidin-4(3H)-one]	< 10 µM	< 0.1 µM	< 10 µM	< 10 µM
NCc1ccc(-c2nc3c(oc4ccc(Br)cc43)c(=O)[nH]2)cc1 [Compound 349, 2-[4-(Aminomethyl)phenyl]-8-bromo[1]benzofuro[3,2-d]pyrimidin-4(3H)-one]	< 10 µM	–	< 10 µM	< 10 µM
CN(C)Cc1cccc(-c2nc3c(oc4ccc(Br)cc43)c(=O)[nH]2)c1 [Compound 353, 8-Bromo-2-{3-[(dimethylamino)methyl]phenyl}[1]benzofuro[3,2-d]pyrimidin-4(3H)-one]	< 10 µM	–	< 10 µM	< 10 µM
Cc1cc(C(=O)Nc2ccc(-c3nc4c(oc5ccc(Br)cc54)c(=O)[nH]3)c(Cl)c2)no1 [Compound 362, N-[4-(8-bromo-4-oxo-3,4-dihydro[1]benzofuro[3,2-d]pyrimidin-2-yl)-3-chlorophenyl]-5-methylisoxazole-3-carboxamide]	< 10 µM	–	< 10 µM	< 10 µM
O=C(Nc1ccc(-c2nc3c(oc4ccc(Br)cc43)c(=O)[nH]2)c(Cl)c1)c1ccon1 [Compound 363, N-[4-(8-bromo-4-oxo-3,4-dihydro[1]benzofuro[3,2-d]pyrimidin-2-yl)-3-chlorophenyl]isoxazole-3-carboxamide]	< 10 µM	–	< 10 µM	< 10 µM
CC(=O)N[C@@H]1CCN(Cc2nc3c(oc4ccc(Br)cc43)c(=O)[nH]2)C1 [Compound 364, N-{(3R)-1-[(8-bromo-4-oxo-3,4-dihydro[1]benzofuro[3,2-d]pyrimidin-2-yl)methyl]pyrrolidin-3-yl}acetamide]	< 10 µM	< 0.1 µM	< 10 µM	< 10 µM
O=c1[nH]c(CN2CCC[C@H]2CO)nc2c1oc1ccc(Br)cc12 [Compound 366, 8-bromo-2-{[(2S)-2-(hydroxymethyl)pyrrolidin-1-yl]methyl}[1]benzofuro[3,2-d]pyrimidin-4(3H)-one]	< 10 µM	< 0.1 µM	< 10 µM	< 10 µM
O=C(O)C1(O)CCN(Cc2nc3c(oc4ccc(Br)cc43)c(=O)[nH]2)C1 (centres unmarked) [Compound 368, 1-[(8-bromo-4-oxo-3,4-dihydro[1]benzofuro[3,2-d]pyrimidin-2-yl)methyl]-3-hydroxypyrrolidine-3-carboxylic acid]	< 10 µM	< 0.1 µM	< 10 µM	< 10 µM
CO[C@H]1CCN(Cc2nc3c(oc4ccc(Br)cc43)c(=O)[nH]2)C1 [Compound 369, 8-bromo-2-{[(3S)-3-(methyloxy)pyrrolidin-1-yl]methyl}[1]benzofuro[3,2-d]pyrimidin-4(3H)-one]	< 10 µM	< 0.1 µM	< 10 µM	< 10 µM
O=C(O)C1CN(Cc2nc3c(oc4ccc(Br)cc43)c(=O)[nH]2)C1 [Compound 370, 1-[(8-bromo-4-oxo-3,4-dihydro[1]benzofuro[3,2-d]pyrimidin-2-yl)methyl]azetidine-3-carboxylic acid]	< 10 µM	–	< 10 µM	< 10 µM
O=C(Nc1ccc(-c2nc3c(oc4ccc(Br)cc43)c(=O)[nH]2)c(Cl)c1)c1ncco1 [Compound 373, N-[4-(8-bromo-4-oxo-3,4-dihydro[1]benzofuro[3,2-d]pyrimidin-2-yl)-3-chlorophenyl]-1,3-oxazole-2-carboxamide]	< 10 µM	–	< 10 µM	< 10 µM
O=C(Nc1ccc(-c2nc3c(oc4ccc(Br)cc43)c(=O)[nH]2)c(Cl)c1)c1cnco1 [Compound 374, N-[4-(8-bromo-4-oxo-3,4-dihydro[1]benzofuro[3,2-d]pyrimidin-2-yl)-3-chlorophenyl]-1,3-oxazole-5-carboxamide]	< 10 µM	–	< 10 µM	< 10 µM
O=c1[nH]c(-c2cccc3c2CCNC3)nc2c1oc1ccc(Br)cc12 [Compound 375, 8-Bromo-2-(1,2,3,4-tetrahydroisoquinolin-5-yl)[1]benzofuro[3,2-d]pyrimidin-4(3H)-one]	< 10 µM	< 0.1 µM	< 10 µM	< 10 µM
O=c1[nH]c(-c2cnc3cc(C4CCNCC4)nn3c2)nc2c1oc1ccc(Br)cc12 [Compound 377, 8-Bromo-2-(2-piperidin-4-ylpyrazolo[1,5-a]pyrimidin-6-yl)[1]benzofuro[3,2-d]pyrimidin-4(3H)-one]	< 10 µM	–	< 10 µM	< 10 µM
